In patent publication US8530404B2, “Compounds and methods for treatment of cancer” (FibroGen, Inc., priority 2005, dated 2013):

Experiments:
OVCAR3 ovarian tumors = assay: Subcutaneous OVCAR3 ovarian tumor xenograft in SCID mice (Example 7); assay type: in vivo, mouse; conditions: 60 mg/kg; study end (day 29); FIG. 2
Description: The experiment was conducted essentially as described above in Example 3, except that the tumors of GFP-transfected H460 cells were replaced with OVCAR3 ovarian tumors. […] FIG. 2 is a Kruskal-Wallis box plot. The central bar within each box indicates the median value for the group, the limits of the various boxes and whiskers indicate group quartiles within the total distribution of values determined in this study.

H460 tumor cells = assay: Subcutaneous H460 lung tumor xenograft, tumor growth delay study in combination with chemotherapeutics (Example 6); assay type: in vivo, mouse; conditions: Cmpd A 60 mg/kg p.o., paclitaxel 15 mg/kg i.v., carboplatin 120 mg/kg i.p.
Description: This study was used to determine the effect of combined treatments where compounds and methods of the invention were combined with conventional anti-tumor therapies. These experiments were performed essentially as described above in Example 3, except that 1×10^7 H460 tumor cells were implanted subcutaneously to the flanks of female Harlan nude animals. The number of animals in each group was 10. Treatments were initiated when tumors reached an average size of approximately 100 mm^3.
The study design was representative of tumor progression studies of the TGD (Tumor Growth Delay) type, using a protocol that required individual animals to be humanely euthanized after reaching a set endpoint of tumor volume greater than or equal to 2 cc.
These two chemotherapeutic agents are of two broad classes of conventional anti-tumor therapeutics: microtubule poisons (paclitaxcel); and DNA-directed agents, including the sub-classification of DNA alkylating agents (carboplatin). In tumor-bearing human patients, conventional anti-tumor therapy commonly use of one or both classes of chemotherapeutic agents.
The study was initiated with administration of conventional anti-tumor treatment or vehicle control, and followed one day after with administration of Compound A or vehicle control. […] (See Table 11 and Table 12 for compound and chemotherapeutic agent dosing schedule.)
Tumor progression was determined for each treatment group and is presented as median Time-to-Endpoint (TTE).

[1] = Complete blood counts and reticulocyte analysis in H-460 xenograft mice (Example 1); assay type: in vivo, mouse; conditions: study end
Description: Sizes of the primary tumors were measured through the skin with calipers once per week. Tumor volumes were calculated by the formula V═(W^2*L)/2. Body weight of the mice in each group was also measured once per week during the experimental period. All animals were sacrificed following thirty-two days of treatment. Primary tumors were excised and weighed on an electronic balance. Blood samples were taken during terminal sacrifice and placed in microhematocrit tubes containing EDTA. Complete Blood Counts (CBC) and reticulocyte analysis were performed with the Cell Dyn 3700 analyzer (Abbott Diagnostics), as described by the manufacturer.

[2] = test system: REDD1/RTP801 gene expression; assay: REDD1/RTP801 gene expression in Kelly neuroblastoma cells; assay type: cell-based; conditions: 20 μM, vs DMSO control
Description: (§1) To identify compounds useful in the methods of the present invention, the following studies were performed. The effect of compounds of the present invention on expression of various genes associated with anti-tumor activity (e.g., genes having anti-proliferative activity, genes having pro-apoptotic activity, genes having anti-tumor activity, etc.). In these experiments, the effect of compounds on BNIP3, BNIP3L, NDRG1, CDKN1C, and REDD1/RTP801 gene expression in various types of cultured tumor cells line was examined, including Hep3B cells (human hepatocellular carcinoma), Kelly neuroblastoma cells, and MCF7 cells (human breast cancer)
(§2) The effects of various compounds of the present invention on the expression of genes associated with tumor growth and progression were examined in Kelly neuroblastoma cells as follows. Kelly neuroblastoma cells were grown in RPMI media. […]
(§3) RNA was isolated from the Kelly neuroblastoma cells using a commercial kit and used for the preparation of cDNA. BNIP3, CDKN1C, and 18S RNA levels were measured using commercial kits (18S, Applied Biosystems cat#4319413E); BNIP3, Applied Biosystems cat#HS00969293 MH). […] Kelly cell NDRG1 and BNIP3L mRNA levels were measured by Affymetrix microarray in a separate study. […]

NDRG1 gene expression = NDRG1 gene expression in Kelly neuroblastoma cells (Affymetrix microarray); assay type: cell-based; conditions: 20 μM, 6 hours, vs 0.5% DMSO control
Description: as §1, §2, §3

## O=C(O)CNC(=O)c1nc(Cl)c2ccccc2c1O [Compound A, [(1-Chloro-4-hydroxy-isoquinoline-3-carbonyl)-amino]-acetic acid]
OVCAR3 ovarian tumors
  reduction of median tumor volume compared to vehicle-treated control: 26%
H460 tumor cells
  % TGD, Percent Tumor Growth Delay (vs. Group control): 9%
  T-C (Test-control, difference of medians): 1.5 days
H460 tumor cells; listed as Cmpd. A
  % TGD, Percent Tumor Growth Delay (vs. Group control): 9%
H460 tumor cells; vehicle group 16.2
  Median TTE (Time-to-Endpoint, tumor volume >= 2 cc): 17.7 days

## C[C@H](NC(=O)c1ncc2cc(Oc3ccccc3)ccc2c1O)C(=O)O [Compound B, (S)-2-[(4-Hydroxy-7-phenoxy-isoquinoline-3-carbonyl)-amino]-propionic acid]
[1]; 6 mg/kg PO
  Abs Retic (reticulocyte count): 653
  Baso %: 6.35%
  Baso (basophils): 1840 µL⁻¹
  EOS %: 0.49%
  Eos (eosinophil count): 80 µL⁻¹
  HCT (hematocrit): 37.7%
  HGB (hemoglobin): 12.7 g/dL
  IRF (immature RET fraction): 0.64
  Lymph %: 18.3%
  Lymph (lymphocytes): 4700 µL⁻¹
  MCH (mean corpuscular hemoglobin): 14.6 pg
  MCHC (MCH concentration): 33.8 g/dL
  MCV (mean corpuscular volume): 43.2 fL
  Mono %: 7.61%
  Mono (monocytes): 2370 µL⁻¹
  Neut %: 67.5%
  Neut (neutrophils): 18400 µL⁻¹
  PLAT (platelets): 1.536e+06 µL⁻¹
  RBC (red blood cells): 8.71e+06 µL⁻¹
  RDW (RBC distribution width): 21.4%
  RET (reticulocytes): 7.5%
  WBC (white blood cells): 27300 µL⁻¹
[1]; 20 mg/kg PO
  Abs Retic (reticulocyte count): 552
  Baso %: 4.52%
  Baso (basophils): 780 µL⁻¹
  EOS %: 0.44%
  Eos (eosinophil count): 70 µL⁻¹
  HCT (hematocrit): 37.7%
  HGB (hemoglobin): 12.7 g/dL
  IRF (immature RET fraction): 0.56
  Lymph %: 14.6%
  Lymph (lymphocytes): 2700 µL⁻¹
  MCH (mean corpuscular hemoglobin): 14.5 pg
  MCHC (MCH concentration): 33.7 g/dL
  MCV (mean corpuscular volume): 43.0 fL
  Mono %: 4.88%
  Mono (monocytes): 850 µL⁻¹
  Neut %: 75.6%
  Neut (neutrophils): 16500 µL⁻¹
  PLAT (platelets): 1.767e+06 µL⁻¹
  RBC (red blood cells): 8.78e+06 µL⁻¹
  RDW (RBC distribution width): 21.7%
  RET (reticulocytes): 6.3%
  WBC (white blood cells): 20800 µL⁻¹

## COc1ccc(Oc2ccc3c(O)c(C(=O)NCC(=O)O)ncc3c2)cc1 [Compound C, {[4-Hydroxy-7-(4-methoxy-phenoxy)-isoquinoline-3-carbonyl]-amino}-acetic acid]
[2]
  fold-increase in REDD1/RTP801 mRNA expression: 3.6 fold
[1]; 20 mg/kg PO
  Abs Retic (reticulocyte count): 457
  Baso %: 1.47%
  Baso (basophils): 150 µL⁻¹
  EOS %: 0.47%
  Eos (eosinophil count): 40 µL⁻¹
  HCT (hematocrit): 41.1%
  HGB (hemoglobin): 14.0 g/dL
  IRF (immature RET fraction): 0.56
  Lymph %: 25.2%
  Lymph (lymphocytes): 3000 µL⁻¹
  MCH (mean corpuscular hemoglobin): 14.9 pg
  MCHC (MCH concentration): 34.1 g/dL
  MCV (mean corpuscular volume): 43.8 fL
  Mono %: 2.67%
  Mono (monocytes): 320 µL⁻¹
  Neut %: 70.2%
  Neut (neutrophils): 11400 µL⁻¹
  PLAT (platelets): 1.707e+06 µL⁻¹
  RBC (red blood cells): 9.36e+06 µL⁻¹
  RDW (RBC distribution width): 22.3%
  RET (reticulocytes): 4.9%
  WBC (white blood cells): 14900 µL⁻¹
NDRG1 gene expression
  fold-increase in NDRG1 mRNA expression: 7.3 fold

## Cc1nc(C(=O)NCC(=O)O)c(O)c2ccc(Oc3ccccc3)cc12 [Compound D, [(4-Hydroxy-1-methyl-7-phenoxy-isoquinoline-3-carbonyl)-amino]-acetic acid]
OVCAR3 ovarian tumors
  reduction of median tumor volume compared to vehicle-treated control: 5%
